Literature values, collected in patent US9289392B2, “Extended release pharmaceutical composition of entacapone or salts thereof” (Wockhardt Ltd., priority 2008, dated 2016).

| Compound | solubility in water |
| --- | --- |
| C[C@@](Cc1ccc(O)c(O)c1)(NN)C(=O)O [Carbidopa] | slightly soluble |
| N[C@@H](Cc1ccc(O)c(O)c1)C(=O)O [Levodopa, (−)-L-α-amino-β-(3,4-dihydroxybenzene) propanoic acid] | slightly soluble |
